The record followed here is ChEMBL document CHEMBL3870340, “Cytotoxic activity, apoptosis induction and structure-activity relationship of 8-OR-2-aryl-3,4-dihydroisoquinolin-2-ium salts as promising anticancer agents” (Bioorg Med Chem Lett, 2017).

Usually IC50 stands for the midpoint of a concentration-inhibition curve.

Series [1] can be described thus: Cytotoxicity against human MKN45 cells assessed as decrease in cell viability after 48 hrs by MTT assay. The format is functional, cell-based. The settings on record: MKN-45, 48 h. Background: Tetrazolium dyes change colour on reduction, which living cells bring about.
Series [2] in a line: Cytotoxicity against human NB4 cells assessed as decrease in cell viability after 48 hrs by MTT assay. The format is functional, cell-based. The following applies: NB-4, 48 h.
The nature of series [3]: Antiproliferative activity against human MKN45 cells at 20 uM after 48 hrs by MTT assay relative to control. The format is functional. The following applies: MKN-45, 48 h, read-out: GI.
Series [4] can be described thus: Antiproliferative activity against human NB4 cells at 5 uM after 48 hrs by MTT assay relative to control. The format is functional. The following applies: NB-4, 48 h, read-out: GI.
The nature of series [5]: Cytotoxicity against primary porcine fetal kidney cells assessed as decrease in cell viability after 48 hrs by MTT assay. The following applies: pig (Sus scrofa). The format is toxicity, cell-based.
The nature of series [6]: Cytotoxicity against primary goat fetal fibroblast assessed as decrease in cell viability after 48 hrs by MTT assay. The format is toxicity. The following applies: goat (Capra hircus), primary goat fetal fibroblasts.

Take `COc1cccc2c1C=[N+](c1cccc(F)c1)CC2`: the IC50 in series [1] is 11.3 µM; in series [2] it was 18.8 µM. Besides, the inhibition of growth at 20 µM in series [3] worked out at 80.6%. Further, the inhibition of growth at 5 µM in series [4] was 37.6%.
For `COc1cccc2c1C=[N+](c1cccc(Br)c1)CC2`, the IC50 came to 10.5 µM in series [1] and 4.62 µM in series [2]. In series [3], the inhibition of growth at 20 µM was found to be 87.4%. In addition, the inhibition of growth at 5 µM in series [4] came out at 46.6%.
As to `COc1cccc2c1C=[N+](c1c(F)cccc1F)CC2`, the results for the IC50 in series [1] and in series [2] were 8.43 µM and 3.9 µM, respectively. The inhibition of growth at 20 µM in series [3] was 80.5%. Further, the inhibition of growth at 5 µM in series [4] worked out at 48.9%.
The like results for `COc1cccc2c1C=[N+](c1ccccc1F)CC2` were, in that order, 6.64 µM, 4.55 µM, 67.5% and 42%.
The like results for `COc1cccc2c1C=[N+](c1ccc(Cl)cc1Cl)CC2` were, in that order, 3.55 µM, 1.99 µM, 88.2% and 54.7%.
On the same counts, the results for `COc1cccc2c1C=[N+](c1ccc(Br)cc1)CC2` are 11 µM, 6.12 µM, 96.8% and 59.4%.
Regarding `COc1cccc2c1C=[N+](c1ccccc1C(F)(F)F)CC2`, the figures for the IC50 in series [1] and in series [2] were 2.92 µM and 3.06 µM, respectively. The inhibition of growth at 20 µM in series [3] came to 85%. The inhibition of growth at 5 µM in series [4] amounted to 59.3%.
On the same counts, the results for `COc1cccc2c1C=[N+](c1cccc(Cl)c1)CC2` are 9.99 µM, 22.4 µM, 73.3% and 35.1%.
Consider `COc1cccc2c1C=[N+](c1cccc(O)c1)CC2`, for which the inhibition of growth at 20 µM in series [3] stood at 24.5%. Also, in series [4], the inhibition of growth at 5 µM is 24.2%.
On to `COc1cccc([N+]2=Cc3c(cccc3OC)CC2)c1`, for which the IC50 stood at 15.1 µM in series [1] and 22.8 µM in series [2]. For the same molecule, in series [3], the inhibition of growth at 20 µM worked out at 66.2%. Moreover, the inhibition of growth at 5 µM in series [4] came out at 22.8%.
On the same counts, the results for `COc1cccc2c1C=[N+](c1cc(Cl)cc(Cl)c1)CC2` are 3.61 µM, 2.65 µM, 86.4% and 55.8%.
For the molecule `CC(=O)Oc1cccc2c1C=[N+](c1ccccc1I)CC2`, in series [3], the inhibition of growth at 20 µM is 3.4%. Further, the inhibition of growth at 5 µM in series [4] was found to be 15%.
As to `COc1cccc2c1C=[N+](c1ccccc1Br)CC2`, the IC50 amounted to 6.89 µM in series [1] and 5.3 µM in series [2]. For the same molecule, in series [3], the inhibition of growth at 20 µM was found to be 86.8%. For the same molecule, the inhibition of growth at 5 µM in series [4] is 48.6%.
Take `COc1ccc2c(c[n+](C)c3c4cc5c(cc4ccc23)OCO5)c1OC` [CHELERYTHRINE]: the figures for the IC50 in series [1] and in series [2] were 12.7 µM and 1.49 µM, respectively. In addition, the inhibition of growth at 20 µM in series [3] was determined as 92.7%. The inhibition of growth at 5 µM in series [4] turned out to be 88.4%.
As to `COc1ccc([N+]2=Cc3c(cccc3OC)CC2)cc1`, the inhibition of growth at 20 µM in series [3] was determined as 0.7%. For the same molecule, the inhibition of growth at 5 µM in series [4] stood at 6.6%.
On the same counts, the results for `COc1cccc2c1C=[N+](c1ccccc1)CC2` are 14.4% and 20.5%.
On to `COc1cccc2c1C=[N+](c1cccc(I)c1)CC2`, for which the IC50 in series [1] came to 11.4 µM; in series [2], 1.67 µM. Besides, the inhibition of growth at 20 µM in series [3] was found to be 73%. The IC50 at 48 h in series [5] worked out at 4.57 µM; in series [6], 2.67 µM. The inhibition of growth at 5 µM in series [4] stood at 45.3%.
On to `COc1cccc2c1C=[N+](c1ccc(F)cc1)CC2`, for which the IC50 in series [1] is 21 µM; in series [2], 23.8 µM. For the same molecule, in series [3], the inhibition of growth at 20 µM was 53%. Moreover, the inhibition of growth at 5 µM in series [4] came to 40.2%.
On the same counts, the results for `COc1cccc2c1C=[N+](c1ccc(I)cc1)CC2` are 4.26 µM, 8.59 µM, 71.1% and 51.8%.
For `COc1cccc2c1C=[N+](c1ccccc1[N+](=O)[O-])CC2`, in series [3], the inhibition of growth at 20 µM came to 3%. Besides, the inhibition of growth at 5 µM in series [4] worked out at 10.5%.
The like results for `COc1cccc2c1C=[N+](c1ccc(C)cc1)CC2` were, in that order, 4.7% and 17.7%.
Consider `COc1cccc2c1C=[N+](c1ccc(O)cc1)CC2`, for which the inhibition of growth at 20 µM in series [3] came to 5.4%. Further, the inhibition of growth at 5 µM in series [4] came out at 4.7%.
Turning to `COc1cccc2c1C=[N+](c1ccc(C(F)(F)F)cc1)CC2`, the IC50 is 7.07 µM in series [1] and 2.58 µM in series [2]. Besides, the inhibition of growth at 20 µM in series [3] worked out at 83.4%. Moreover, the inhibition of growth at 5 µM in series [4] amounted to 53.3%.
Consider `C[n+]1cc2c3c(ccc2c2ccc4cc5c(cc4c21)OCO5)OCO3` [SANGUINARIUM], for which the IC50 in series [1] was determined as 1.51 µM; in series [2], 0.53 µM. The inhibition of growth at 20 µM in series [3] was 92.3%. Also, the inhibition of growth at 5 µM in series [4] came to 88.5%.
As to `COc1cccc2c1C=[N+](c1ccccc1C#N)CC2`, the values for the IC50 in series [1] and in series [2] were 4.61 µM and 6.97 µM, respectively. The inhibition of growth at 20 µM in series [3] came to 51.1%. Besides, the inhibition of growth at 5 µM in series [4] was 30.4%.
The like results for `COc1cccc2c1C=[N+](c1ccc(C#N)cc1)CC2` were, in that order, 3.56 µM, 3.49 µM, 81.2% and 36.4%.
Turning to `COc1cccc2c1C=[N+](c1cccc([N+](=O)[O-])c1)CC2`, the IC50 in series [1] stood at 13.7 µM; in series [2], 2.83 µM. For the same molecule, the inhibition of growth at 20 µM in series [3] turned out to be 67.1%. For the same molecule, the inhibition of growth at 5 µM in series [4] turned out to be 40.3%.
For `CCOc1cccc2c1C=[N+](c1ccccc1I)CC2`, the inhibition of growth at 20 µM in series [3] worked out at 82.2%. Further, the inhibition of growth at 5 µM in series [4] is 49.7%.
For the molecule `COc1cccc2c1C=[N+](c1ccc(Br)cc1F)CC2`, the IC50 in series [1] is 6.95 µM; in series [2] it was 3.62 µM. Moreover, in series [3], the inhibition of growth at 20 µM is 69.2%. Further, the inhibition of growth at 5 µM in series [4] was 56.9%.
The like results for `COc1cccc2c1C=[N+](c1cccc(C(F)(F)F)c1)CC2` were, in that order, 2.03 µM, 9.61 µM, 78.3% and 47.9%.
`COc1cccc2c1C=[N+](c1ccccc1C)CC2`: the inhibition of growth at 20 µM in series [3] worked out at 30.5%. Also, in series [4], the inhibition of growth at 5 µM turned out to be 3.4%.
On to `COc1cccc2c1C=[N+](c1ccccc1Cl)CC2`, for which the IC50 in series [1] is 7.21 µM; in series [2], 9.29 µM. For the same molecule, in series [3], the inhibition of growth at 20 µM was found to be 84%. In addition, the inhibition of growth at 5 µM in series [4] is 47.6%.
Consider `COc1cccc2c1C=[N+](c1ccc(I)cc1F)CC2`, for which the IC50 in series [1] turned out to be 7.98 µM; in series [2], 3.64 µM. The inhibition of growth at 20 µM in series [3] is 89%. Further, the inhibition of growth at 5 µM in series [4] is 54.8%.
Take `COc1ccccc1[N+]1=Cc2c(cccc2OC)CC1`: in series [3], the inhibition of growth at 20 µM was found to be 15%. In series [4], the inhibition of growth at 5 µM is 2.1%.
Turning to `COc1cccc2c1C=[N+](c1cccc(C)c1)CC2`, the IC50 in series [1] was determined as 8.57 µM. The inhibition of growth at 20 µM in series [3] was found to be 79.6%. In addition, the inhibition of growth at 5 µM in series [4] was determined as 3.1%.
With `COc1cccc2c1C=[N+](c1ccc(Cl)cc1)CC2`, the inhibition of growth at 20 µM in series [3] worked out at 12.3%. For the same molecule, the inhibition of growth at 5 µM in series [4] came out at 23.1%.
The like results for `COc1cccc2c1C=[N+](c1ccccc1O)CC2` were, in that order, 8.4% and 0.6%.
For `Ic1ccccc1[N+]1=Cc2c(cccc2OCc2ccccc2)CC1`, the IC50 in series [1] is 1.99 µM; in series [2] it was 2.65 µM. The inhibition of growth at 20 µM in series [3] worked out at 91.5%. Further, the inhibition of growth at 5 µM in series [4] turned out to be 78.2%.
`COc1cccc2c1C=[N+](c1ccc(Br)cc1Br)CC2`: the IC50 came out at 4.53 µM in series [1] and 2.46 µM in series [2]. Further, the inhibition of growth at 20 µM in series [3] was 51.9%. Also, the inhibition of growth at 5 µM in series [4] stood at 61.4%.
On the same counts, the results for `COc1cccc2c1C=[N+](c1cccc(C#N)c1)CC2` are 7.13 µM, 3.66 µM, 83.4% and 39.6%.
On to `Oc1cccc2c1C=[N+](c1ccccc1I)CC2`, for which, in series [3], the inhibition of growth at 20 µM was 30.9%. In series [4], the inhibition of growth at 5 µM was found to be 22.9%.
